Here are results for one substance from patent publication US5162538A, “Antiviral new peptides” (Bayer Aktiengesellschaft, priority 1989, dated 1992).

One assay has as its target T1, HIV protease (Human immunodeficiency virus type 1 group M subtype B, UniProt P04585).
T1 construct: purified HIV protease was incubated with synthetic peptide
In words: HIV-specific protease enzyme test (RP-HPLC analysis of synthetic peptide cleavage). Type of assay: biochemical. The conditions noted are these: purified HIV protease incubated with synthetic peptide imitating a Gag-precursor cleavage site; 50% inhibition of protease activity. Here is the method: The compounds of the general formula (I) have extraordinarily strong action against retroviruses. This was proven by experiments using the HIV-specific protease enzyme test.
The result of the example below was obtained using the HIV-test system described in the following reference [cf. Hansen, J., Billich, S., Schulze, T., Sukrow, S. and Molling, K. (1988), EMBO Journal, Vol. 7, No. 6, pp. 1785-1791]: purified HIV protease was incubated with synthetic peptide which imitates a cleavage site in the Gag-precursor protein and represents an in vivo cleavage site of HIV protease. The resulting cleavage products of the synthetic peptide were analyzed by reverse-phase high performance liquid chromatography (RP-HPLC). The IC50 value relates to the substance concentration which causes 50% inhibition of protease activity under the abovementioned test conditions.

A further assay concerns Visna virus. In words: Visna virus test in infected cell culture (cytopathic effect). Type of assay: cell-based. The conditions noted are these: sheep fibroblast cells infected with Visna virus, MOI approx. 0.05, 7 days at 37° C., non-cytotoxic concentrations. Here is the method:
This was shown by way of example for the Visna virus.
The Visna virus and the HIV virus both belong to the retrovirus subfamily of lentiviruses.
In cell cultures which are infected with Visna virus, pronounced, virus-induced, cytopathic effects appear 5 to 10 days after infection. By treating the infected cell cultures with compounds according to the invention, it was possible to prevent the appearance of these cytopathic effects.
The Visna virus test was carried out according to the method of O. Narayan et al., Journal of Infectious Diseases 135, 5, 1977, 800-806. For this, a compound according to the invention was diluted to non-cytotoxic concentrations in the culture medium in 96-well microtiter plates. Sheep fibroblast cells (5×10^4 cells per well) in production medium were then added to each well. Each well then received 15 μl of a Visna virus solution having a titer of approx. 2.5×10^4 TCID50 (TCID=tissue culture infections dose). This virus dose corresponds to a MOI (multiplicity of infection) of approx. 0.05.
Under these infection conditions, a virus-induced, cytopathic effect resulted between day 5 and day 10 in an infection control without substance. The infected and treated cells and the control cells were incubated for 7 days at 37° C. and 5% CO2. […]
A general note: Protection from cytopathic effect is a common read-out in antiviral testing.

What is called IC50 is the concentration needed to halve the response being measured. Lower therefore signals greater potency. For the substance “Nα-{Nδ-[1-(1-oxo)ethyl-[1-(5-S-amino-6-cyclohexyl-4-S-hydroxy-2-(1-methyl)ethylhexanoyl)]]-S-isoleucinyl}-2-pyridylmethylamide [Example I]”, the IC50 on HIV protease stood at 500 pM. Further, in the assay on Visna virus, the “protection from virus-induced cytopathic effect / cell destruction” value is “protected the cells infected with Visna virus from the virus-induced cell destruction”.
